Measurements: US4810422A, “Bile acid derivatives, their salts and production thereof” (priority 1986, dated 1989)

Tests used:
[1] = system: P388 Mouse leukemia cells; experiment: Carcinolytic effect: inhibition of ^3 H-thymidine intake in P388 leukemia cells; format: cell-based; conditions: 2 hours then 1 hour with ^3 H-thymidine, vs. solvent control; for Percent inhibition against ^3 H-thymidine intake: 50 μM, 37° C
Procedure: P388 Mouse leukemia cells which were subjected to passage transplantation in CDF1 mice were suspended in RPMI1640 culture fluid containing 20 mM HEPES to a cell density of 5×10^5 cells/ml, and 1 ml each of aliquots were apportioned into test tubes. Each of the test samples was added to the suspension to a final concentration of 50 μM, and each preparation was incubated at 37° C with shaking (100 shuttles/min.). Two hours thereafter, ^3 H-thymidine was added to a final concentration of 0.25 μCi/ml, and the incubation was further carried out for 1 hour. Then the radioactivity taken in the cells was measured by a conventional method.

male ICR mice = experiment: Toxicity: single administration, life span observed for 3 weeks; format: in vivo
Procedure: Separately, 500 mg/kg of the above test compound was administered intraperitoneally to a group of eight male ICR mice, and their life spans were similarly observed for 3 weeks.

Row | SMILES | inhibition at 50 µM ([1]; Mus musculus, P388, 37° C, read-out: Percent inhibition against ^3 H-thymidine intake) [%] | Percent inhibition against ^3 H-thymidine intake [1] [%] | mortality, intraperitoneal (male ICR mice; 500 mg/kg intraperitoneal, eight male ICR mice) | mortality, oral (male ICR mice; 2,000 mg/kg oral once, 0.5% CMC, four male ICR mice)
1 | C[C@H](CCC(=O)O)[C@H]1CC[C@H]2[C@@H]3[C@H](O)C[C@@H]4C[C@H](O)CC[C@]4(C)[C@H]3C[C@H](O)[C@]12C [Cholic acid, reference compound] | 2 | – | – | –
2 | C[C@H](CCC(=O)O)[C@H]1CC[C@H]2[C@@H]3[C@H](O)C[C@@H]4C[C@H](OC(=O)Cc5ccc(N(CCCl)CCCl)cc5)CC[C@]4(C)[C@H]3C[C@H](O)[C@]12C [Compound No. 2, 3-O-[p-(N,N-bis(2-chloroethyl)amino)phenylacetyl] cholic acid] | – | 90 | – | –
3 | C[C@H](CCC(=O)O)[C@H]1CC[C@H]2[C@@H]3[C@H](O)C[C@@H]4C[C@H](OC(=O)c5ccc(CN(CCCl)CCCl)cc5)CC[C@]4(C)[C@H]3C[C@H](O)[C@]12C [Compound No. 31, 3-O-[p-(N,N-bis(2-chloroethyl)aminomethyl)benzoyl] cholic acid] | – | 94 | – | –
4 | C[C@H](CCC(=O)O)[C@H]1CC[C@H]2[C@@H]3[C@H](O)C[C@@H]4C[C@H](OC(=O)CN(CCCl)CCCl)CC[C@]4(C)[C@H]3C[C@H](O)[C@]12C [Compound No. 38, 3-O-[N,N-bis(2-chloroethyl)aminoacetyl] cholic acid] | – | 83 | No mortality case was observed | No mortality case was observed
5 | COc1ccc(COC(=O)CC[C@@H](C)[C@H]2CC[C@H]3[C@@H]4[C@H](O)C[C@@H]5C[C@H](OC(=O)c6ccc(OC(=O)N(CCCl)CCCl)cc6)CC[C@]5(C)[C@H]4C[C@H](O)[C@]23C)cc1 [Compound No. 52, p-Methoxybenzyl 3-O-[p-(N,N-bis(2-chloroethyl)aminocarbonyloxy)benzoyl] cholate] | – | 88 | – | –
